In paper PMC4166935, “Toward Biophysical Probes for the 5-HT3 Receptor: Structure−Activity Relationship Study of Granisetron Derivatives” (Journal of Medicinal Chemistry, 2010):
Like-named read-outs stand apart in the source and are kept apart here. One block for each molecule: values may come before it.

What was measured:
human 5-HT3A receptor = target: T1, human 5-HT3A receptor (Homo sapiens, UniProt P46098); experiment: [3H]granisetron competition binding, HEK293 cell membranes stably expressing h5-HT3AR
T1 construct: expressed in transfected cells; cell membranes
T1 sequence (P46098 24-478): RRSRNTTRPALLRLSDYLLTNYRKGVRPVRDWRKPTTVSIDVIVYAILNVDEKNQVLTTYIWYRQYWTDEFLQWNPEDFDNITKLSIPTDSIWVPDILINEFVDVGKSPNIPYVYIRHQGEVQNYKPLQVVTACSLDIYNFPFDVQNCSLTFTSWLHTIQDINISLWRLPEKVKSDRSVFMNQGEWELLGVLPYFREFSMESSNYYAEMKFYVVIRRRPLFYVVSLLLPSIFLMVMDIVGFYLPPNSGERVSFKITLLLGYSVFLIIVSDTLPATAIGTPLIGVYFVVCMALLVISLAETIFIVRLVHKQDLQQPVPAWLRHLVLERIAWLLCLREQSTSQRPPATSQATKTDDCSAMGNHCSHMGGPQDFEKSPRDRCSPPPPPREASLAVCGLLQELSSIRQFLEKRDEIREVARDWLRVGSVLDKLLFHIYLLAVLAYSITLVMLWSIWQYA
Method: Materials and cell culture maintenance
All cell culture reagents were obtained from Gibco BRL (Paisley, UK), except foetal calf serum which was from Labtech International (Ringmer, UK). [3H]granisetron (63.5 Ci/mmol) was from PerkinElmer (Boston, Massachusetts, USA).
Human embryonic kidney (HEK)-293 cells were maintained on 90 mm tissue culture plates at 37°C and 7% CO2 in a humidified atmosphere. Cells were cultured in DMEM:F12 (Dulbecco’s modified Eagle medium/nutrient mix F12 (1:1)) with GlutaMAX™ I containing 10% foetal calf serum and passaged when 90% confluent.
Receptor expression and radioligand binding
HEK-293 cells stably expressing the human 5-HT3A subunit (accession number: P46098) were scraped into 1 mL of ice-cold HEPES buffer (10 mM, pH 7.4) and frozen at –20°C.
After thawing, they were spun at 13,000 rpm for 1 min, resuspended and 50 μg of cell […]
Competition binding (12 points) was performed on at least three separate plates of cells.
Nonspecific binding was determined using 10 μM quipazine or other competitive antagonist.
Reactions were incubated for at least 1 h at 4°C and terminated by vacuum filtration, using a Brandel cell harvester, onto GF/B filters presoaked in 0.3% polyethyleneimine. Radioactivity was determined by scintillation counting using a Beckman LS6000SC (Fullerton, CA, USA).
Competition binding data were analyzed by iterative curve fitting (GraphPad Prism v3.02, GraphPad Software, San Diego, CA, USA), according to the equation: […]
where [L] is the concentration of ligand present, BL is the binding in the presence of ligand […]
the concentration of L which gives a binding equal to (Bmax + Bmin)/2, and nH is the Hill coefficient. Ki values were calculated from IC50 values using the Cheng–Prusoff equation: […]
where Ki is the equilibrium dissociation constant for binding of the unlabelled antagonist, [L] is the concentration of radioligand and Kd is the equilibrium dissociation constant of the radioligand. Values are presented as mean ± SEM.

5-HT3 receptor = system: 5-HT3 receptor; set-up: method as in earlier work; conditions: cited from earlier work
h5-HT3AR in HEK293 cells = target: T2, h5-HT3AR in HEK293 cells (Homo sapiens, UniProt P46098); experiment: Confocal labeling of HEK293 cells stably transfected with h5-HT3AR with fluorescent probe 16; assay type: cell-based; conditions: 10 μM quipazine with 10 nM 16 for 10 min
T2 sequence (P46098 24-478): T1 sequence (P46098 24-478)
Method: To confirm the validity of this hypothesis, we attached a BODIPY FL fluorophore at this position (Scheme 3) to create fluorescent analogue 16 (BFL-GR). […] Similar images have previously been obtained using fluorescein, rhodamine 6G, and cyanine Cy5 dyes attached via a linker at a similar position of ondansetron, another high-affinity 5-HT3AR antagonist.[30]
Figure 3 Labeling of HEK293 cells stably transfected with h5-HT3AR with 16. Cells were incubated in 10 nM 16 for 10 min with (B) or without (A) 10 μM quipazine, washed, mounted, and then observed in a confocal microscope.[31] […] Unlabeled areas are nuclei. […] Scale bar represents 20 μm.

[1] = competition with 1 nM [3H]granisetron, HEK293 cell membranes stably expressing h5-HT3AR, read-out: Ki (nM) mean ± SEM
[2] = Ki (nM) mean ± SEM, competition with 1 nM [3H]granisetron, HEK293 cell membranes stably expressing h5-HT3AR

SMILES: CN1C2CCCC1CC(NC(=O)c1nn(C)c3cc(OCc4ccccc4)ccc13)C2 (stereo not drawn) [4c]
Ki (human 5-HT3A receptor; [1]): 749 ± 183 nM

SMILES: CN1C2CCCC1CC(NC(=O)c1nn(C)c3ccc(OCc4ccccc4)cc13)C2 (stereo not drawn) [3c]
Ki (human 5-HT3A receptor; [1]): 3030 ± 956 nM

SMILES: COc1cccc2c1c(C(=O)NC1CC3CCCC(C1)N3C)nn2C (stereo not drawn) [2b]
Ki (human 5-HT3A receptor): 26.3 ± 7.4 nM

SMILES: CN1C2CCCC1CC(NC(=O)c1nn(C)c3c(OCc4ccccc4)cccc13)C2 (stereo not drawn) [5c]
Ki (human 5-HT3A receptor; [2]): 0.23 ± 0.03 nM
affinity for 5-HT3AR compared to 1 (human 5-HT3A receptor; comparison with granisetron (1)): equal or exceed the affinity measured for 1

SMILES: CN1C2CCCC1CC(NC(=O)c1nn(C)c3c(O)cccc13)C2 (stereo not drawn) [5a]
potency compared to granisetron (5-HT3 receptor): as potent as granisetron

SMILES: COc1cccc2c(C(=O)NC3CC4CCCC(C3)N4C)nn(C)c12 (stereo not drawn) [5b]
Ki (human 5-HT3A receptor): 71.1 ± 8 nM

SMILES: CN1C2CCCC1CC(NC(=O)c1nn(C)c3cccc(OCc4ccccc4)c13)C2 (stereo not drawn) [2c]
Ki (human 5-HT3A receptor; [2]): 375 ± 61 nM

displacement of 16 from its binding sites (h5-HT3AR in HEK293 cells): has displaced 16 from its binding sites
SMILES: c1ccc2nc(N3CCNCC3)ccc2c1 [Quipazine, quipazine]
